# Measurements as given in US6737383B1, “Herbicidal oxadiazolidines” (priority 1999, dated 2004).
# How the values were obtained:
# [1] = system: pigweed; assay: Test B pre/postemergence pigweed; assay type: in vivo, Amaranthus retroflexus; settings: Rate 500 g/ha, Postemergence; scale 0 to 10, 0 no effect, 10 complete control
# Summary of the method: (§1)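 Herbicidal effect was estimated by eye on a ten-point control scale after plants spent twelve to sixteen days in a greenhouse following soil or foliar treatment. Foliar sprays targeted plants at one to four leaves; all doses were formulated in a non-phytotoxic solvent with surfactant.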
# [2] = system: rape; assay: Test B pre/postemergence rape; assay type: in vivo, Brassica napus; settings: for Rape plant response rating: Rate 62 g/ha
# Summary of the method: as §1
# [3] = system: soybean; assay: Test B pre/postemergence soybean; assay type: in vivo, Glycine max
# Summary of the method: as §1
# [4] = system: sugar beet; assay: Test B pre/postemergence sugar beet; assay type: in vivo, Beta vulgaris
# Summary of the method: as §1
# [5] = system: velvetleaf; assay: Test B pre/postemergence velvetleaf; assay type: in vivo, Abutilon theophrasti
# Summary of the method: as §1
# [6] = system: wheat; assay: Test B pre/postemergence wheat; assay type: in vivo, Triticum aestivum
# Summary of the method: as §1
# [7] = system: wild oat; assay: Test B pre/postemergence wild oat; assay type: in vivo, Avena fatua
# Summary of the method: as §1
# [8] = system: purple nutsedge; assay: Test B pre/postemergence purple nutsedge; assay type: in vivo, Cyperus rotundus
# Summary of the method: as §1
# [9] = system: rice; assay: Test B flood test rice; assay type: in vivo, Oryza sativa
# Summary of the method: (§2)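 Flood test on plants grown to the 2-leaf stage; treated plants kept in greenhouse twelve to sixteen days, then visually rated against controls on a 0 (no effect) to 10 (complete control) scale.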
# [10] = system: smallflower flatsedge; assay: Test B flood test smallflower flatsedge; assay type: in vivo, Cyperus difformis
# Summary of the method: as §2
# [11] = system: duck salad; assay: Test B flood test duck salad; assay type: in vivo, Heteranthera limosa
# Summary of the method: as §2
# [12] = system: bamyardgrass; assay: Test B flood test barnyardgrass; assay type: in vivo, Echinochloa crus-galli
# Summary of the method: as §2
# [13] = Postemergence, Rate 125 g/ha, scale 0 to 10, 0 is no effect, 10 is complete control
# [14] = Rate 500 g/ha, Postemergence, scale 0 to 10, 0 no effect, 10 complete control
# [15] = Preemergence, Rate 62 g/ha, scale of 0 to 10 where 0 is no effect and 10 is complete control
# [16] = Preemergence, Rate 250 g/ha, scale of 0 to 10 where 0 is no effect and 10 is complete control
# [17] = Preemergence, Rate 500 g/ha, scale of 0 to 10 where 0 is no effect and 10 is complete control
# [18] = Rate 62 g/ha, Postemergence, scale 0 to 10 (0 no effect, 10 complete control)
# [19] = Rate 62 g/ha, headed Pre-emergence (flood test species), scale 0 to 10 (0 no effect, 10 complete control)
# [20] = Rate 125 g/ha, Pre-emergence, flood test species, scale 0 to 10 where 0 is no effect and 10 is complete control
# [21] = Rate 250 g/ha, Pre-emergence, flood-test species, scale 0 to 10, 0 is no effect, 10 is complete control
# [22] = Rate 500 g/ha, Pre-emergence, flood test species, scale 0 to 10 (0 no effect, 10 complete control)
smiles,measurement,setting,value
CC(C)N(C(=O)n1oc(=O)n(-c2ccc3ccccc3c2)c1=O)c1ccc(F)cc1 [Compound 329],"Plant response rating, Redroot pigweed",[1],0
same,"Plant response rating, Rape",[2]; [13],0
same,Rape plant response rating,"[2]; Preemergence, scale of 0 to 10 where 0 is no effect and 10 is complete control",0
same,Rape plant response rating (0 to 10 scale),"[2]; Preemergence, Rate 125 g/ha",0
same,Rape plant response rating,"[2]; Postemergence, scale 0 to 10 (0 no effect, 10 complete control)",0
same,"Plant response rating, Rape",[2]; [14],0
same,"Plant response rating, Soybean",[3]; [13],1
same,Soybean plant response rating,[3]; [15],0
same,Soybean plant response rating (0 to 10 scale),"[3]; Preemergence, Rate 125 g/ha",0
same,Soybean plant response rating,[3]; [16],0
same,Soybean plant response rating,[3]; [17],0
same,Soybean plant response rating,[3]; [18],1
same,"Plant response rating, Soybean",[3]; [14],2
same,"Plant response rating, Sugarbeets",[4]; [13],0
same,Sugarbeets plant response rating,[4]; [15],0
same,Sugarbeets plant response rating (0 to 10 scale),"[4]; Preemergence, Rate 125 g/ha",0
same,Sugarbeets plant response rating,[4]; [16],0
same,Sugarbeets plant response rating,[4]; [17],0
same,Sugarbeets plant response rating,[4]; [18],0
same,"Plant response rating, Sugarbeets",[4]; [14],0
same,"Plant response rating, Velvetleaf",[5]; [13],0
same,Velvetleaf plant response rating,[5]; [15],0
same,Velvetleaf plant response rating (0 to 10 scale),"[5]; Preemergence, Rate 125 g/ha",0
same,Velvetleaf plant response rating,[5]; [16],0
same,Velvetleaf plant response rating,[5]; [17],0
same,Velvetleaf plant response rating,[5]; [18],0
same,"Plant response rating, Velvetleaf",[5]; [14],0
same,"Plant response rating, Wheat",[6]; [13],0
same,Wheat plant response rating,[6]; [15],0
same,Wheat plant response rating (0 to 10 scale),"[6]; Preemergence, Rate 125 g/ha",0
same,Wheat plant response rating,[6]; [16],0
same,Wheat plant response rating,[6]; [17],0
same,Wheat plant response rating,[6]; [18],0
same,"Plant response rating, Wheat",[6]; [14],0
same,"Plant response rating, Wild oats",[7]; [13],0
same,Wild oats plant response rating,[7]; [15],0
same,Wild oats plant response rating (0 to 10 scale),"[7]; Preemergence, Rate 125 g/ha",0
same,Wild oats plant response rating,[7]; [16],0
same,Wild oats plant response rating,[7]; [17],0
same,Wild oats plant response rating,[7]; [18],0
same,"Plant response rating, Wild oats",[7]; [14],0
same,"Plant response rating, Nutsedge",[8]; [13],0
same,Nutsedge plant response rating,[8]; [15],0
same,Nutsedge plant response rating,[8]; [16],0
same,Nutsedge plant response rating,[8]; [18],0
same,"Plant response rating, Nutsedge",[8]; [14],0
same,Rice plant response rating,[9]; [19],0
same,Rice plant response rating,[9]; [20],0
same,Rice plant response rating,[9]; [21],0
same,Rice plant response rating,[9]; [22],0
same,S. Flatsedge plant response rating,[10]; [19],0
same,S. Flatsedge plant response rating,[10]; [20],0
same,S. Flatsedge plant response rating,[10]; [21],0
same,S. Flatsedge plant response rating,[10]; [22],0
same,Ducksalad plant response rating,[11]; [19],0
same,Ducksalad plant response rating,[11]; [20],0
same,Ducksalad plant response rating,[11]; [21],0
same,Ducksalad plant response rating,[11]; [22],0
same,Barnyardgrass plant response rating,[12]; [19],0
same,Barnyardgrass plant response rating,[12]; [20],0
same,Barnyardgrass plant response rating,[12]; [21],0
same,Barnyardgrass plant response rating,[12]; [22],0
